Results from patent US10336774B2, “N-azaspirocycloalkane substituted N-heteroaryl compounds and compositions for inhibiting the activity of SHP2” (NOVARTIS AG, priority 2014, dated 2019).

Target: SHP2 (Homo sapiens (Human), UniProt Q06124)
Experiment: SHP2 Allosteric Inhibition Assay
Assay type: biochemical
Details: 0.5 nM SHP2 activated with 0.5 μM peptide IRS1_pY1172(dPEG8)pY1222, surrogate substrate DiFMUP, fluorescence
Excerpt: SHP2 Allosteric Inhibition Assay SHP2 is allosterically activated through binding of bis-tyrosyl-phorphorylated peptides to its Src Homology 2 (SH2) domains. The latter activation step leads to the release of the auto-inhibitory interface of SHP2, which in turn renders the SHP2 protein tyrosine phosphatase (PTP) active and available for substrate recognition and reaction catalysis. The catalytic activity of SHP2 was monitored using the surrogate substrate DiFMUP in a prompt fluorescence assay format. […] After 30-60 minutes incubation at 25° C., the surrogate substrate DiFMUP (Invitrogen, cat# D6567) was added to the reaction and incubated at 25° C. for 30 minutes. […] The inhibitor dose response curves were analyzed using normalized IC50 regression curve fitting with control based normalization.

Compound | IC50 [nM]
Nc1nc(N2CC3(CCC3N)C2)cnc1Sc1cccc(Cl)c1Cl (racemic) [Example 8, 2-(6-amino-5-((2,3-dichlorophenyl)thio)pyrazin-2-yl)-2-azaspiro[3.3]heptan-5-amine] | 5360
Nc1nc(N2CCC3(CCC3N)CC2)cnc1Sc1cccc(Cl)c1Cl (racemic) [Example 14, 7-(6-amino-5-((2,3-dichlorophenyl)thio)pyrazin-2-yl)-7-azaspiro[3.5]nonan-1-amine] | 56
Nc1nc(N2CCC3(CC2)CCC(F)(F)C3N)cnc1Sc1cccnc1C(F)(F)F (racemic) [Example 82, racemic-8-(6-amino-5-((2-(trifluoromethyl)pyridin-3-yl)thio)pyrazin-2-yl)-2,2-difluoro-8-azaspiro[4.5]decan-1-amine] | 380
Nc1nc(N2CCC3(CC2)CCC(F)(F)[C@@H]3N)cnc1Sc1cccnc1C(F)(F)F (racemic) [Example 83a, (R) and (S)-8-(6-amino-5-((2-(trifluoromethyl)pyridin-3-yl)thio)pyrazin-2-yl)-2,2-difluoro-8-azaspiro[4.5]decan-1-amine] | 882
Nc1nc(N2CCC3(CC2)CCC(F)(F)[C@@H]3N)cnc1Sc1cccnc1C(F)(F)F (racemic) [Example 83b, (R) and (S)-8-(6-amino-5-((2-(trifluoromethyl)pyridin-3-yl)thio)pyrazin-2-yl)-2,2-difluoro-8-azaspiro[4.5]decan-1-amine] | 306
Nc1nc(N2CCC3(CCCC3N)CC2)nnc1Sc1cccnc1C(F)(F)F (stereo in doubt) [Example 23, (S)-8-(5-amino-6-((2-(trifluoromethyl)pyridin-3-yl)thio)-1,2,4-triazin-3-yl)-8-azaspiro[4.5]decan-1-amine] | 290
Nc1nc(N2CCC3(CC2)OCC[C@H]3N)cnc1Sc1cccnc1C(F)(F)F [Example 5] | 349
Nc1nc(N2CCC3(CCCCC3N)CC2)cnc1-c1cccc(Cl)c1Cl (stereo not shown) [Example 6] | 74
Nc1nc(N2CCC3(CCCC3N)CC2)cnc1-c1cccc(Cl)c1Cl (stereo not shown) [Example 7] | 73
Nc1nc(N2CC3(CCC3N)C2)cnc1-c1cccc(Cl)c1Cl (stereo not shown) [Example 9] | 1110
Nc1nc(N2CCC3(CCC3N)CC2)cnc1-c1cccc(Cl)c1Cl (stereo not shown) [Example 16] | 145
Nc1nc(N2CCC3(CC2)C(N)CCS3(=O)=O)cnc1-c1cccc(Cl)c1Cl (stereo not shown) [Example 18] | 3550
Nc1nc(N2CCC3(CC2)C(N)CCS3(=O)=O)cnc1Sc1cccc(Cl)c1Cl (stereo not shown) [Example 19] | 4090
NC(=O)c1nc(Sc2cccnc2C(F)(F)F)c(N)nc1N1CCC2(CC[C@@H]2N)CC1 [Example 22] | 53
Nc1nc(N2CCC3(CCC[C@@H]3N)CC2)ncc1Sc1cccnc1C(F)(F)F [Example 24, (S)-8-(4-amino-5-((2-(trifluoromethyl)pyridin-3-yl)thio)pyrimidin-2-yl)-8-azaspiro[4.5]decan-1-amine] | 2780
NC(=O)c1nc(Sc2ccnc(C(F)(F)F)c2Cl)c(N)nc1N1CCC2(CCC[C@H]2N)CC1 [Example 25, (R)-5-amino-3-(1-amino-8-azaspiro[4.5]decan-8-yl)-6-((3-chloro-2-(trifluoromethyl)pyridin-4-yl)thio)pyrazine-2-carboxamide] | 58
Nc1nc(N2CCC3(CC2)OCCC3N)cnc1Sc1cccnc1C(F)(F)F (stereo not shown) [Example 35] | 232
NC(=O)c1cc(Sc2cccnc2C(F)(F)F)c(N)nc1N1CCC2(CCC[C@H]2N)CC1 [Example 39, (R)-6-amino-2-(1-amino-8-azaspiro[4.5]decan-8-yl)-5-((2-(trifluoromethyl)pyridin-3-yl)thio)nicotinamide] | 118
Nc1nc(N2CCC3(CC2)C[C@@H](O)C[C@@H]3N)cnc1Sc1cccnc1C(F)(F)F [Example 44] | 135
CN[C@@H]1C[C@H](O)CC12CCN(c1cnc(Sc3cccnc3C(F)(F)F)c(N)n1)CC2 [Example 49] | 234
NC1=NC(=O)CC12CCN(c1cnc(Sc3cccnc3C(F)(F)F)c(N)n1)CC2 [Example 50] | 610
Nc1nc(N2CCC3(CC2)COC[C@@H]3N)cnc1Sc1ccnc(N)c1Cl [Example 53] | 298
Nc1nc(N2CCC3(CC2)COC[C@H]3N)cnc1Sc1ccnnc1Cl [Example 55] | 73

The next molecules have a lower IC50 than those just listed; values first:

IC50 [nM] | Compound
44 | CO[C@@H]1C[C@@H](N)C2(CCN(c3cnc(Sc4ccnc(N)c4Cl)c(N)n3)CC2)C1 [Example 45]
42 | Nc1nc(N2CCC3(CC[C@@H]3N)CC2)cnc1Sc1ccnc(N)c1Cl [Example 27]
38 | Nc1nc(N2CCC3(CC[C@@H]3N)CC2)cnc1Sc1cccnc1C(F)(F)F [Example 20, (S)-7-(6-amino-5-((2-(trifluoromethyl)pyridin-3-yl)thio)pyrazin-2-yl)-7-azaspiro[3.5]nonan-1-amine]
38 | CO[C@@H]1C[C@@H](N)C2(CCN(c3cnc(Sc4ccnc(Cl)c4Cl)c(N)n3)CC2)C1 [Example 46]
32 | Nc1nc(N2CCC3(CCCCC3N)CC2)cnc1Sc1cccc(Cl)c1Cl (stereo not shown) [Example 4]
32 | NC1=NCCC12CCN(c1cnc(Sc3cccnc3C(F)(F)F)c(N)n1)CC2 [Example 34, 8-(6-amino-5-((2-(trifluoromethyl)pyridin-3-yl)thio)pyrazin-2-yl)-2,8-diazaspiro[4.5]dec-1-en-1-amine]
28 | Nc1nc(N2CCC3(CC[C@@H]3N)CC2)cnc1Sc1ccnc(Cl)c1Cl [Example 31, (S)-7-(6-amino-5-((2,3-dichloropyridin-4-yl)thio)pyrazin-2-yl)-7-azaspiro[3.5]nonan-1-amine]
25 | Nc1nc(N2CCC3(CCCC3N)CC2)cnc1Sc1cccc(Cl)c1Cl (stereo not shown) [Example 2]
23 | Nc1nc(N2CCC3(CCC[C@H]3N)CC2)cnc1Sc1ccncc1Cl [Example 28, (R)-8-(6-amino-5-((3-chloropyridin-4-yl)thio)pyrazin-2-yl)-8-azaspiro[4.5]decan-1-amine]
21 | Nc1nc(N2CCC3(CC2)CC(F)(F)CC3N)cnc1Sc1cccnc1C(F)(F)F (stereo not shown) [Example 47]
16 | Nc1cccc(Sc2ncc(N3CCC4(CC[C@@H]4N)CC3)nc2N)c1Cl [Example 15]
16 | NC(=O)c1cccc(Sc2ncc(N3CCC4(CCC[C@H]4N)CC3)nc2N)c1Cl [Example 40, (R)-3-((3-amino-5-(1-amino-8-azaspiro[4.5]decan-8-yl)pyrazin-2-yl)thio)-2-chlorobenzamide]
15 | Nc1nc(N2CCC3(CCC[C@H]3N)CC2)cnc1Sc1cccnc1Cl [Example 29, (R)-8-(6-amino-5-((2-chloropyridin-3-yl)thio)pyrazin-2-yl)-8-azaspiro[4.5]decan-1-amine]
14 | Nc1nc(N2CCC3(CCC[C@H]3N)CC2)cnc1Sc1ccnc(N)c1Cl [Example 26, (R)-8-(6-amino-5-((2-amino-3-chloropyridin-4-yl)thio)pyrazin-2-yl)-8-azaspiro[4.5]decan-1-amine]
11 | Nc1cccc(Sc2ncc(N3CCC4(CCC[C@H]4N)CC3)nc2N)c1Cl [Example 32, (R)-8-(6-amino-5-((3-amino-2-chlorophenyl)thio)pyrazin-2-yl)-8-azaspiro[4.5]decan-1-amine]
10 | C[C@H]1CCC2(CCN(c3cnc(Sc4cccnc4C(F)(F)F)c(N)n3)CC2)[C@@H]1N (single isomer, unassigned) [Example 86a]
10 | C[C@@H]1CCC2(CCN(c3cnc(Sc4cccnc4C(F)(F)F)c(N)n3)CC2)[C@@H]1N (single isomer, unassigned) [Example 86b]
10 | NC(=O)c1nc(Sc2cccnc2C(F)(F)F)c(N)nc1N1CCC2(CCCC2N)CC1 (stereo in doubt) [Example 21, (S)-5-amino-3-(1-amino-8-azaspiro[4.5]decan-8-yl)-6-((2-(trifluoromethyl)pyridin-3-yl)thio)pyrazine-2-carboxamide]
10 | Nc1nc(N2CCC3(CCC[C@H]3N)CC2)cnc1Sc1cccc(Cl)c1Cl [Example 3]
10 | Nc1cc(Sc2ncc(N3CCC4(CCC[C@H]4N)CC3)nc2N)c(Cl)cn1 [Example 51]
10 | Nc1nc(N2CCC3(CC2)COC[C@H]3N)cnc1Sc1cccnc1Cl [Example 54]
9 | CO[C@H]1C[C@@H](N)C2(CCN(c3cnc(Sc4cccnc4C(F)(F)F)c(N)n3)CC2)C1 [Example 48]
9 | C[C@@H]1CCC2(CCN(c3cnc(Sc4ccnc(N)c4Cl)c(N)n3)CC2)[C@@H]1N [Example 56]
7 | Nc1nc(N2CCC3(CC2)C[C@@H](O)C[C@H]3N)cnc1Sc1ccnc(N)c1Cl [Example 41, (2R,4R)-4-amino-8-(6-amino-5-((2-amino-3-chloropyridin-4-yl)thio)pyrazin-2-yl)-8-azaspiro[4.5]decan-2-ol]
7 | Nc1nc(N2CCC3(CC2)C[C@@H](O)C[C@H]3N)cnc1Sc1cccnc1C(F)(F)F [Example 42]
7 | Nc1nc(N2CCC3(CC2)COC[C@H]3N)cnc1Sc1ccnc(N)c1Cl [Example 52]
6 | Nc1nc(N2CCC3(CC2)C[C@H](O)C[C@H]3N)cnc1Sc1cccnc1C(F)(F)F [Example 43]
5 | Nc1nc(N2CCC3(CCC[C@H]3N)CC2)cnc1Sc1ccnc(F)c1Cl [Example 33, (R)-8-(6-amino-5-((3-chloro-2-fluoropyridin-4-yl)thio)pyrazin-2-yl)-8-azaspiro[4.5]decan-1-amine]
3 | Nc1nc(N2CCC3(CCC[C@H]3N)CC2)cnc1Sc1ccnc(Cl)c1Cl [Example 30, (R)-8-(6-amino-5-((2,3-dichloropyridin-4-yl)thio)pyrazin-2-yl)-8-azaspiro[4.5]decan-1-amine]
